Like-named read-outs stand apart in the source and are kept apart here. Peptide text beside a SMILES is read from it.
What was measured:
Human Adenovirus-5 [1] = system: Human Adenovirus-5
Murine Norovirus-1 [2] = system: Murine Norovirus-1
Vero cells = conditions: African green monkey
MDCK cells = conditions: dog
Influenza A Virus (H1N1) [3] = system: Influenza A Virus (H1N1)
Influenza A Virus (H3N2) [4] = system: Influenza A Virus (H3N2)
adenovirus = conditions: 111 µM LL-37 ref 60; cited from earlier work
in vitro [5] = conditions: dog
in vitro [6] = conditions: African green monkey
Influenza A Virus (H1N1) [7] = test: microbe, parasite or virus in culture; conditions: H1N1, MDCK, 3 h, read-out: IC50 Influenza A Virus (H1N1)/MDCK
Influenza A Virus (H3N2) [8] = test: microbe, parasite or virus in culture; conditions: H3N2, MDCK, 3 h, read-out: IC50 Influenza A Virus (H3N2)/MDCK
Murine Norovirus-1 [9] = test: microbe, parasite or virus in culture; conditions: Norwalk virus, in Mus musculus, 3 h, read-out: IC50 Murine Norovirus-1/Raw 246.7
Human Adenovirus-5 [10] = test: microbe, parasite or virus in culture; conditions: Human mastadenovirus C, Vero, 3 h, read-out: IC50 Human Adenovirus-5/Vero
H3N2 virus = test: Transmission electron microscopy of treated virus; set-up: species or system influenza virus H3N2 A/Hong Kong/8/68; conditions: 2 h exposure
Protocol: (§1) The viruses were exposed to the peptide/mimics for 2 h at 37 °C. Following this, 10 µL of the treated mixture was applied onto a glow-discharged carbon-coated 200 mesh copper grid and left to evaporate for 5 min. Subsequently, the sample was stained with 2% phosphotungstic acid (pH 4.5) for 1 min to enhance contrast. After air-drying, the grids were examined using an FEI Tecnai G2 20 transmission electron microscope (TEM).

H1N1 = test: Transmission electron microscopy of treated virus; set-up: species or system influenza virus H1N1 A/PR/8/34; conditions: TEM, 2 h exposure; untreated 120 nm
Protocol: as §1

[11] = Circular dichroism conformational analysis; assay type: physicochemical; conditions: 125, 250, 500 µM
Protocol: Circular dichroism (CD) analysis was conducted using the Jasco J-1500 spectropolarimeter to assess the secondary structure of peptides and mimics. The samples were placed in a quartz cuvette with a path length of 0.1 cm (Fisher brand, Thermo Fisher Scientific Aust Pty Ltd.). Spectra were recorded in the range of 185–260 nm at a scan speed of 200 nm/min, averaging 4 scans. The impact of the solvents milliQ water or 30 mM SDS on Mel4 and mimic 758 was evaluated at three concentrations: 500 µM, 250 µM, and 125 µM. Data were averaged, and the spectrum of a sample-free control was subtracted.

[12] = read-out: IC50 Human Adenovirus-5/Vero

SMILES | SI Influenza A Virus (H1N1)/MDCK (Influenza A Virus (H1N1) [3]) | SI Influenza A Virus (H3N2)/MDCK (Influenza A Virus (H3N2) [4]) | IC50 (Influenza A Virus (H1N1) [7]) | IC50 (Influenza A Virus (H3N2) [8]) | IC50 (Murine Norovirus-1 [9]) | CC50 (in vitro [5]; CC50 (H1N1/MDCK)) | CC50 (in vitro [5]; CC50 (H3N2/MDCK)) | IC50 (Human Adenovirus-5 [10]) | other results
NCCCCC(N)C(=O)NCCNC(=O)C(Cc1c[nH]c2ccccc12)NC(=O)c1cc(Br)ccc1NC(=O)c1ccc(-c2ccccc2)cc1 (stereo not drawn) [4-BIPL] | 1.2 | 1.2 |  |  |  |  |  |  | IC50 (Human Adenovirus-5 [1]; [12]): > 62.5 µM; IC50 (Murine Norovirus-1 [2]; read-out: IC50 Murine Norovirus-1/Raw 246.7): > 62.5 µM; CC50 (Vero cells): 38.8 µM; CC50 (MDCK cells): 12.8 µM; IC50 (Influenza A Virus (H1N1) [3]; read-out: IC50 Influenza A Virus (H1N1)/MDCK): 10.3 µM; IC50 (Influenza A Virus (H3N2) [4]; read-out: IC50 Influenza A Virus (H3N2)/MDCK): 10.4 µM
CC[C@H](C)[C@H](NC(=O)[C@H](CCCCN)NC(=O)[C@H](CCC(=O)O)NC(=O)[C@H](CCCCN)NC(=O)[C@H](CO)NC(=O)[C@H](CCCCN)NC(=O)[C@H](CCCNC(=N)N)NC(=O)[C@H](Cc1ccccc1)NC(=O)[C@H](Cc1ccccc1)NC(=O)[C@H](CC(=O)O)NC(=O)CNC(=O)[C@H](CC(C)C)NC(=O)[C@@H](N)CC(C)C)C(=O)NCC(=O)N[C@@H](CCCCN)C(=O)N[C@@H](CCC(=O)O)C(=O)N[C@@H](Cc1ccccc1)C(=O)N[C@@H](CCCCN)C(=O)N[C@@H](CCCNC(=N)N)C(=O)N[C@H](C(=O)N[C@H](C(=O)N[C@@H](CCC(N)=O)C(=O)N[C@@H](CCCNC(=N)N)C(=O)N[C@H](C(=O)N[C@@H](CCCCN)C(=O)N[C@@H](CC(=O)O)C(=O)N[C@@H](Cc1ccccc1)C(=O)N[C@@H](CC(C)C)C(=O)N[C@@H](CCCNC(=N)N)C(=O)N[C@@H](CC(N)=O)C(=O)N[C@@H](CC(C)C)C(=O)N[C@H](C(=O)N1CCC[C@H]1C(=O)N[C@@H](CCCNC(=N)N)C(=O)N[C@H](C(=O)N[C@@H](CCC(=O)O)C(=O)N[C@@H](CO)C(=O)O)[C@@H](C)O)C(C)C)[C@@H](C)CC)C(C)C)[C@@H](C)CC [LL-37, reference compound] |  |  |  |  |  |  |  |  | IC50 Human Adenovirus-5/Vero (Human Adenovirus-5 [1]): no activity; IC50 (Human Adenovirus-5 [1]; 3 h): > 125 µM; IC50 (Murine Norovirus-1 [2]; 3 h): 4.2 µM; IC50 (Influenza A Virus (H1N1) [3]; Virus, 3 h): > 500 µM; effect on adenovirus (adenovirus): no effect; IC50 (Influenza A Virus (H3N2) [4]; Virus, 3 h): > 500 µM
N=C(N)NCCC[C@H](NC(=O)[C@H](CCCNC(=N)N)NC(=O)[C@H](CCCNC(=N)N)NC(=O)[C@H](CCCNC(=N)N)NC(=O)CNC(=O)CNC(=O)[C@H](CCCNC(=N)N)NC(=O)[C@H](CCCNC(=N)N)NC(=O)[C@H](CCCNC(=N)N)NC(=O)[C@H](CCCNC(=N)N)NC(=O)[C@H](CCCNC(=N)N)NC(=O)[C@H](CCCNC(=N)N)NC(=O)[C@H](CCCCN)NC(=O)[C@H](CCCNC(=N)N)NC(=O)[C@H](CCCCN)NC(=O)[C@H](CC(N)=O)NC(=O)[C@@H](N)CCCCN)C(=O)O [Mel4] (H-KNKRKRRRRRRGGRRRR-OH) |  |  |  |  |  |  |  |  | IC50 (Human Adenovirus-5 [1]; 3 h): 47.4 µM; IC50 (Murine Norovirus-1 [2]; 3 h): 8.6 µM; IC50 (Influenza A Virus (H1N1) [3]; Virus, 3 h): > 500 µM; CC50 (in vitro [5]): 12.7 µM; CC50 at 24 h (in vitro [6]): 47.6 µM; IC50 (Influenza A Virus (H3N2) [4]; Virus, 3 h): > 500 µM
CC[C@H](C)[C@H](NC(=O)[C@H](Cc1c[nH]c2ccccc12)NC(=O)[C@H](CO)NC(=O)[C@@H](NC(=O)[C@H](CC(C)C)NC(=O)[C@@H](N)[C@@H](C)O)[C@@H](C)CC)C(=O)N[C@@H](CCCCN)C(=O)N[C@@H](CC(N)=O)C(=O)N[C@@H](CCCCN)C(=O)N[C@@H](CCCNC(=N)N)C(=O)N[C@@H](CCCCN)C(=O)N[C@@H](CCC(N)=O)C(=O)N[C@@H](CCCNC(=N)N)C(=O)N1CCC[C@H]1C(=O)N[C@@H](CCCNC(=N)N)C(=O)N[C@H](C(=O)N[C@@H](CO)C(=O)N[C@@H](CCCNC(=N)N)C(=O)N[C@@H](CCCNC(=N)N)C(=O)N[C@@H](CCCNC(=N)N)C(=O)N[C@@H](CCCNC(=N)N)C(=O)N[C@@H](CCCNC(=N)N)C(=O)N[C@@H](CCCNC(=N)N)C(=O)NCC(=O)NCC(=O)N[C@@H](CCCNC(=N)N)C(=O)N[C@@H](CCCNC(=N)N)C(=O)N[C@@H](CCCNC(=N)N)C(=O)N[C@@H](CCCNC(=N)N)C(=O)O)C(C)C [Melimine] (H-TLISWIKNKRKQRPRVSRRRRRRGGRRRR-OH) |  |  |  |  |  |  |  |  | IC50 (Human Adenovirus-5 [1]; 3 h): > 125 µM; IC50 (Murine Norovirus-1 [2]; 3 h): 4.8 µM; IC50 (Influenza A Virus (H1N1) [3]; Virus, 3 h): > 500 µM; CC50 (in vitro [5]): 28.1 µM; CC50 at 24 h (in vitro [6]): 14.5 µM; IC50 (Influenza A Virus (H3N2) [4]; Virus, 3 h): > 500 µM
NCCCCC(N)C(=O)NCCNC(=O)C(Cc1c[nH]c2ccccc12)NC(=O)c1cc(Br)ccc1NC(=O)c1ccc2ccccc2c1 (stereo not drawn) [NAPL] | 10.6 | 10.6 | 10.5 µM | 10.5 µM | > 62.5 µM | 112 µM | 112 µM | 59.3 µM | 
NCCNC(=O)C(Cc1c[nH]c2ccccc12)NC(=O)c1cc(-c2ccccc2-c2ccccc2)ccc1N (stereo not drawn) [Sau-22] | 11.4 | 14.8 | 6.93 µM | 5.34 µM | > 62.5 µM | 79.4 µM | 79.4 µM | > 62.5 µM | 
NCCNC(=O)C(Cc1c[nH]c2ccccc12)NC(=O)c1cc(-c2ccc3ccccc3c2)ccc1N (stereo not drawn) [compound 610] | 14.1 | 9 | 2.35 µM | 3.7 µM | > 62.5 µM | 33.3 µM | 33.3 µM | > 62.5 µM | effect on virus particle (TEM) (H3N2 virus): reduction in size and disruption to the envelop and spike proteins; average particle size of the virus after treatment (H1N1): 48 nm
NCCNC(=Nc1ccccc1)NCCNC(=O)C(Cc1c[nH]c2ccccc12)NC(=O)c1cc(Br)ccc1NC(=O)c1ccc2ccccc2c1 (stereo not drawn) [compound 758] | 11.9 | 15.8 | 12.3 µM | 9.3 µM | > 62.5 µM | 147 µM | 147 µM | > 62.5 µM | secondary structure by CD in SDS ([11]; 30 mM SDS (membrane mimetic)): beta sheet-like structure; secondary structure by CD in water ([11]; milliQ water): beta sheet-like structure
NCCN=C(NCCN)NCCNC(=O)C(Cc1c[nH]c2ccccc12)NC(=O)c1cc(Br)ccc1NC(=O)c1ccc2ccccc2c1 (stereo not drawn) [compound 1083] | 8.7 | 9.05 | 28.5 µM | 27.7 µM | > 62.5 µM | 250 µM | 250 µM | 47.2 µM | IC50 (Human Adenovirus-5 [1]; [12]): 45.1 µM
N=C(N)NCCNC(=O)C(Cc1ccccc1)NC(=O)c1cc(Br)ccc1NC(=O)c1ccc2ccccc2c1 (stereo not drawn) [compound 1091] | 5.5 | 5.2 | 23.1 µM | 24.3 µM | > 62.5 µM | 128 µM | 128 µM | > 62.5 µM | 
NCCNC(=Nc1ccccc1)NCCNC(=O)C(Cc1ccccc1)NC(=O)c1cc(Br)ccc1NC(=O)c1ccc2ccccc2c1 (stereo not drawn) [compound 1096] | 2.1 | 1.9 | 22.2 µM | 24 µM | > 62.5 µM | 47.2 µM | 47.2 µM | > 62.5 µM | 
